From patent US20240254118A1, “PRMT5 INHIBITORS AND USES THEREOF” (Gilead Sciences, Inc., priority 2022, published 2024) come the findings set out here.

Molecules are shown by their SMILES. Some results are limits rather than exact numbers.

Test [1] relates to SDMA signal (PRMT5 inhibition) in HCT116 MTAP-deleted cells. In words: Symmetric di-methyl arginine image-based high content screen assay (SDMA assay), HCT116 MTAP-deleted. Particulars: SDMA assay; for EC50: Homo sapiens, HCT-116, 72 h, 3 days of treatment, cell line not given, taken as HCT116 MTAP-deleted, read-out: EC50 (SDMA assay). The class given is cell-based. Here is the method:
Symmetric di-methyl arginine image-based high content screen assay (SDMA assay) was performed in HCT116 WT and HCT116 MTAP-deleted cell lines to measure Symmetric Di-methyl Arginine (SDMA) signal reduction after selective PRMT5 inhibition in the MTAP-deleted cells.
Briefly, the same compound plates were generated as mentioned in the previous section of Cell viability assay on Day −1.
On Day 3, the cells were fixed by adding 45 μl of 8% neutralized formalin solution to each well using EL460 liquid dispenser 5 μl cassette and the cells were incubated for 30 minutes at room temperature. The formalin solution was washed off with […] phosphate buffered saline (dPBS), the 0.1% Triton X-100 solution in dPBS was used to permeabilize the cells for 15 minutes at room temperature. The triton solution was aspirated, 50 μl of Odyssey Blocking buffer+0.05% Tween20 was added and the plate was incubated at room temperature for 30 minutes.
The blocking solution was removed, a 20 μl of SDMA antibody (Cell Signaling Technology, Cat no. 13222) diluted 1:500 in Odyssey Blocking buffer+0.05% Tween20 was added and the plate was incubated at 4° C. overnight. Next day, the primary SDME antibody solution was washed from each well three times with 0.05% Tween20 in dPBS (PBST).
A 30 μl of the secondary antibody, a Goat anti-Rabbit Alexa Fluor Plus 488 (Invitrogen, Cat no. PIA32731) was diluted 1:500 in Odyssey Blocking buffer+0.05% Tween20 and the plate was incubated for 1.5 hours in dark at room temperature. The secondary antibody solution was removed, 30 μl of 5 mg/ml DAPI solution diluted 1:2000 in dPBS was added and the plate was incubated for 30 minutes in dark at room temperature. The DAPI solution was aspirated and the wells were washed six times with dPBS.
The SDMA signal and DAPI signal per cell were counted using a Cellomics CX7 LZR instrument reading under 488 and 405 nm laser, respectively. The SDMA signal was quantified by mean average intensity per cell from Alexa Fluor Plus 488 after the cell was defined with DAPI.

Test [2] has as its system HCT116 MTAP-deleted cells. As to the kind of experiment: Cell viability assay (CellTiter-Glo, 7 days), HCT116 MTAP-deleted. The following applies: Homo sapiens, HCT-116, 168 h.
[3] abbreviates: taken as HCT116 WT versus MTAP-deleted.
The mark [4] stands for this setting: taken as HCT116 WT vs MTAP-deleted.

For the compound `CN(C(=O)C1CC1)N(Cc1cccc2c1OC(F)(F)O2)C(=O)c1ccc2nc(N)c3cnn(C)c3c2c1` [Example 302, 4-amino-N′-(cyclopropanecarbonyl)-N-((2,2-difluorobenzo[d][1,3]dioxol-4-yl)methyl)-N′,1-dimethyl-1H-pyrazolo[4,3-c]quinoline-8-carbohydrazide], the EC50 in test [1] was in the range of 1 to 5 nM. For the same compound, in test [1] (setting [3]), the “EC50 selectivity (SDMA assay)” value stood at 248. In addition, the CC50 in test [2] was less than 100 nM.

For the compound `CCOC(=O)N(C)N(Cc1ccc(C(F)(F)F)cn1)C(=O)c1ccc2nc(N)c3cnn(C)c3c2c1` [Example 38, ethyl N-[(4-amino-1-methyl-pyrazolo[4,3-c]quinoline-8-carbonyl)-[[5-(trifluoromethyl)-2-pyridyl]methyl]amino]-N-methyl-carbamate], the EC50 in test [1] is less than 1 nM. Further, the “EC50 selectivity (SDMA assay)” value in test [1] (setting [3]) worked out at 12. The compound further yielded a CC50 in test [2] of less than 100 nM.

`Cn1ncc2c(N)nc3ccc(C(=O)N(Cc4ccc(C(F)(F)F)cn4)NC(=O)C4CC4)cc3c21` [Example 443, 4-amino-N′-(cyclopropanecarbonyl)-1-methyl-N-((5-(trifluoromethyl)pyridin-2-yl)methyl)-1H-pyrazolo[4,3-c]quinoline-8-carbohydrazide]: the EC50 in test [1] was less than 1 nM. Moreover, the “EC50 selectivity (SDMA assay)” value in test [1] (setting [4]) is reported as 400. This compound also registered a CC50 in test [2] of less than 100 nM.

With `COCCN(C)N(Cc1ccc(C(F)(F)F)cn1)C(=O)c1cc2c(cc1F)nc(N)c1cnn(C)c12` [Example 180, 4-amino-7-fluoro-N′-(2-methoxyethyl)-N′,1-dimethyl-N-((5-(trifluoromethyl)pyridin-2-yl)methyl)-1H-pyrazolo[4,3-c]quinoline-8-carbohydrazide], in test [1], the EC50 was less than 1 nM. Further, the “EC50 selectivity (SDMA assay)” value in test [1] (setting [3]) worked out at 50. In test [2], this compound came in with a half-maximal cytotoxic concentration (CC50) of less than 100 nM.

Regarding `CC(=O)N(C)N(Cc1ccc2nsnc2c1)C(=O)c1ccc2nc(N)c3cnn(C)c3c2c1` [Example 96, N′-acetyl-4-amino-N-(2,1,3-benzothiadiazol-5-ylmethyl)-N′,1-dimethyl-pyrazolo[4,3-c]quinoline-8-carbohydrazide], in test [1], the EC50 was in the range of 1 to 5 nM. For the same compound, the “EC50 selectivity (SDMA assay)” value in test [1] (setting [3]) came to 290. This compound had a CC50 in test [2] of less than 100 nM.

`CC(=O)N(C)N(Cc1cc2ccc(Cl)cn2n1)C(=O)c1ccc2nc(N)c3cnn(C)c3c2c1` [Example 403, N′-acetyl-4-amino-N-((6-chloropyrazolo[1,5-a]pyridin-2-yl)methyl)-N′,1-dimethyl-1H-pyrazolo[4,3-c]quinoline-8-carbohydrazide]: the half-maximal effective concentration (EC50) in test [1] was less than 1 nM. The “EC50 selectivity (SDMA assay)” value in test [1] (setting [4]) was 476. In test [2], this compound came in with a CC50 of less than 100 nM.

As to `CC(=O)N(C)N(Cc1ccc(-c2ccns2)cc1F)C(=O)c1ccc2nc(N)c3cnn(C)c3c2c1` [Example 234, N′-acetyl-4-amino-N-(2-fluoro-4-(isothiazol-5-yl)benzyl)-N′,1-dimethyl-1H-pyrazolo[4,3-c]quinoline-8-carbohydrazide], in test [1], the half-maximal effective concentration (EC50) is less than 1 nM. For the same compound, the “EC50 selectivity (SDMA assay)” value in test [1] (setting [3]) came out at 39. This compound displayed a CC50 in test [2] of less than 100 nM.

For `CC(=O)N(C)N(Cc1cccc2c1OC(F)(F)O2)C(=O)c1ccc2nc(N)c3cnn(C)c3c2c1` [Example 307, N′-acetyl-4-amino-N-((2,2-difluorobenzo[d][1,3]dioxol-4-yl)methyl)-N′,1-dimethyl-1H-pyrazolo[4,3-c]quinoline-8-carbohydrazide], the EC50 in test [1] was less than 1 nM. Also, in test [1] (setting [3]), the “EC50 selectivity (SDMA assay)” value is 359. In addition, the CC50 in test [2] is less than 100 nM.

With `CC(=O)N(C)N(Cc1ccc(-c2cnn(C(F)(F)F)c2)cc1)C(=O)c1ccc2nc(N)c3cnn(C)c3c2c1` [Example 375, N′-acetyl-4-amino-N′,1-dimethyl-N-[[4-[1-(trifluoromethyl)pyrazol-4-yl]phenyl]methyl]pyrazolo[4,3-c]quinoline-8-carbohydrazide], the half-maximal effective concentration (EC50) in test [1] is 1 to 5 nM. In addition, the “EC50 selectivity (SDMA assay)” value in test [1] (setting [3]) is given as 141. In test [2], this compound came in with a CC50 of less than 100 nM.

As for `Cn1ncc2c(N)nc3cc(Cl)c(C(=O)N(Cc4ccc(C(F)(F)F)cn4)N4CCCC4=O)cc3c21` [Example 141, 4-amino-7-chloro-1-methyl-N-(2-oxopyrrolidin-1-yl)-N-[[5-(trifluoromethyl)-2-pyridyl]methyl]pyrazolo[4,3-c]quinoline-8-carboxamide], in test [1], the concentration for a half-maximal effect (EC50) was 1 to 5 nM. Moreover, the “EC50 selectivity (SDMA assay)” value in test [1] (setting [3]) amounted to 58. Besides, the CC50 in test [2] is less than 100 nM.

`CN(C(=O)C1CC1)N(Cc1nc2cc(C(F)(F)F)ccc2n1C)C(=O)c1ccc2nc(N)c3cnn(C)c3c2c1` [Example 437, 4-amino-N′-(cyclopropanecarbonyl)-N′,1-dimethyl-N-((1-methyl-5-(trifluoromethyl)-1H-benzo[d]imidazol-2-yl)methyl)-1H-pyrazolo[4,3-c]quinoline-8-carbohydrazide]: the EC50 in test [1] is 1 to 5 nM. In addition, the “EC50 selectivity (SDMA assay)” value in test [1] (setting [4]) turned out to be 256. This compound also displayed a CC50 in test [2] of less than 100 nM.

`CCN(C)N(Cc1ccc(C(F)(F)F)cn1)C(=O)c1ccc2nc(N)c3cnn(C)c3c2c1` [Example 455, 4-amino-N′-ethyl-N′,1-dimethyl-N-((5-(trifluoromethyl)pyridin-2-yl)methyl)-1H-pyrazolo[4,3-c]quinoline-8-carbohydrazide]: the EC50 in test [1] was less than 1 nM. Besides, the “EC50 selectivity (SDMA assay)” value in test [1] (setting [4]) came out at 92. Besides, the CC50 in test [2] was less than 100 nM.

`CN(C(=O)C(C)(C)C)N(Cc1ccc(C(F)(F)F)cn1)C(=O)c1ccc2nc(N)c3cnn(C)c3c2c1` [Example 119, 4-amino-N′,1-dimethyl-N′-pivaloyl-N-((5-(trifluoromethyl)pyridin-2-yl)methyl)-1H-pyrazolo[4,3-c]quinoline-8-carbohydrazide]: in test [1], the half-maximal effective concentration (EC50) is less than 1 nM. For the same compound, the “EC50 selectivity (SDMA assay)” value in test [1] (setting [3]) amounted to 156. In test [2], this compound had a CC50 of less than 100 nM.

In the case of `CN(CC1CC1)N(Cc1ccc(C(F)(F)F)cn1)C(=O)c1cc2c(cc1F)nc(N)c1cnn(C)c12` [Example 174, 4-amino-N′-(cyclopropylmethyl)-7-fluoro-N′,1-dimethyl-N-[[5-(trifluoromethyl)-2-pyridyl]methyl]pyrazolo[4,3-c]quinoline-8-carbohydrazide], the EC50 in test [1] was less than 1 nM. Besides, in test [1] (setting [3]), the “EC50 selectivity (SDMA assay)” value turned out to be 24. The CC50 in test [2] was less than 100 nM.

For the compound `CC(=O)N(C)N(Cc1ccc(C#CC23CC(C2)C3)cc1F)C(=O)c1ccc2nc(N)c3cnn(C)c3c2c1` [Example 390, N′-acetyl-4-amino-N-[[4-[2-(1-bicyclo[1.1.1]pentanyl)ethynyl]-2-fluoro-phenyl]methyl]-N′,1-dimethyl-pyrazolo[4,3-c]quinoline-8-carbohydrazide], in test [1], the EC50 was 1 to 5 nM. The “EC50 selectivity (SDMA assay)” value in test [1] (setting [3]) is listed as 27. Also, the CC50 in test [2] was less than 100 nM.

As to `CC(=O)N(C)N(Cc1ccccc1Cl)C(=O)c1ccc2nc(N)c3cnn(C)c3c2c1` [Example 183, N′-acetyl-4-amino-N-(2-chlorobenzyl)-N′,1-dimethyl-1H-pyrazolo[4,3-c]quinoline-8-carbohydrazide], in test [1], the EC50 is 1 to 5 nM. The “EC50 selectivity (SDMA assay)” value in test [1] (setting [3]) is reported as 300. This compound had a cytotoxic concentration (CC50) in test [2] of less than 100 nM.

As to `CN(C(=O)C1CC1)N(Cc1ncc(C(F)(F)F)cc1F)C(=O)c1ccc2nc(N)c3cnn(C)c3c2c1` [Example 274, 4-amino-N′-(cyclopropanecarbonyl)-N-((3-fluoro-5-(trifluoromethyl)pyridin-2-yl)methyl)-N′,1-dimethyl-1H-pyrazolo[4,3-c]quinoline-8-carbohydrazide], the EC50 in test [1] is less than 1 nM. For the same compound, in test [1] (setting [3]), the “EC50 selectivity (SDMA assay)” value was 243. In test [2], this compound showed a CC50 of less than 100 nM.

For the compound `Cn1ncc2c(N)nc3ccc(C(=O)N(Cc4cn5cc(C#N)ccc5n4)N4CCCC4=O)cc3c21` [Example 88, 4-Amino-N-[(6-cyanoimidazo[1,2-a]pyridin-2-yl)methyl]-1-methyl-N-(2-oxopyrrolidin-1-yl)pyrazolo[4,3-c]quinoline-8-carboxamide], the EC50 in test [1] was greater than 5 nM. Further, the “EC50 selectivity (SDMA assay)” value in test [1] (setting [3]) was 221. The same compound came in with a cytotoxic concentration (CC50) in test [2] of 100 to 1000 nM.

`Cn1ncc2c3cc(C(=O)N(Cc4ccc(C(F)(F)F)cn4)N4CCCC4=O)ccc3nc(N)c21` [Example 151, 4-amino-3-methyl-N-(2-oxopyrrolidin-1-yl)-N-((5-(trifluoromethyl)pyridin-2-yl)methyl)-3H-pyrazolo[3,4-c]quinoline-8-carboxamide]: the EC50 in test [1] was less than 1 nM. Further, the “EC50 selectivity (SDMA assay)” value in test [1] (setting [3]) was 525. The same compound returned a CC50 in test [2] of less than 100 nM.
